Test results published in article PMC5520994 (Science signaling, 2017).
“Also recorded” adds a separate entry of the source. Where two headings read alike, the source gives them in different places. Each block holds one molecule with its values, some of them ahead of it.

Columns and labels:
[1] = target: IL-17A/IL-17RA binding (Homo sapiens, UniProt Q96F46); experiment: Ligand-receptor binding inhibition assay
[2] = target: T1, IL-17E/IL-17RB binding (Homo sapiens, UniProt Q9NRM6); experiment: Ligand-receptor binding inhibition assay; details: serial dilutions, purified proteins
T1 sequence (Q9NRM6 18-289): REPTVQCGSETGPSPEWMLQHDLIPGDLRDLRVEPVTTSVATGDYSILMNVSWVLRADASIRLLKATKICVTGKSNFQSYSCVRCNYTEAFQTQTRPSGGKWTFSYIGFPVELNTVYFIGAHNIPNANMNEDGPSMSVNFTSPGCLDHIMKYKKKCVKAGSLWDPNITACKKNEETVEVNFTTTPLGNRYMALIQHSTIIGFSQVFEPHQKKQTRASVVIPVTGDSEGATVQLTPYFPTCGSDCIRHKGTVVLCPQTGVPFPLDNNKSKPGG

[3] = target: T2, IL-17C/IL-17RE binding (Homo sapiens, UniProt Q8NFR9); experiment: Ligand-receptor binding inhibition assay; details: serial dilutions, purified proteins
T2 sequence (Q8NFR9 155-454): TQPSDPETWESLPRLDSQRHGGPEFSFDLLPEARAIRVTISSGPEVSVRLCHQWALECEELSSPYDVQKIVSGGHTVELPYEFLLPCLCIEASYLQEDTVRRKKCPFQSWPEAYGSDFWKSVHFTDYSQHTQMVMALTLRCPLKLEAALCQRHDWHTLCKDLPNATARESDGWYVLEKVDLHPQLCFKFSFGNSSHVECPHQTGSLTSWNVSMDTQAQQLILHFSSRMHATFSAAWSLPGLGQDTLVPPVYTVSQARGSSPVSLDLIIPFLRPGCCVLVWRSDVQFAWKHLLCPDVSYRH

[4] = target: IL-17RA (WT) (Homo sapiens, UniProt Q96F46); experiment: Fluorescence quenching assay of A18 binding to labeled IL-17RA
IL-17RA (WT), sequence (Q96F46 33-320 limits assumed): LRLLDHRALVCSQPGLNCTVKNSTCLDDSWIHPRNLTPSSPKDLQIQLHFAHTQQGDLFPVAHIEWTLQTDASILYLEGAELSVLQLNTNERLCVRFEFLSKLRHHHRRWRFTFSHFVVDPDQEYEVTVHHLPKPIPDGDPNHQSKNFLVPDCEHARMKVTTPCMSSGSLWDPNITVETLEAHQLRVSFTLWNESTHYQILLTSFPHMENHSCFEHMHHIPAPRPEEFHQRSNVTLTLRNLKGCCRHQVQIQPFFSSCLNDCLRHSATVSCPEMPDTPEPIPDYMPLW

[5] = target: T3, IL-17RA D262A mutant (Homo sapiens, UniProt Q96F46, D293A); experiment: Fluorescence quenching assay of A18 binding to labeled IL-17RA D262A mutant
T3 sequence (Q96F46 33-320 D293A): as the sequence (Q96F46 33-320 limits assumed) above, with D261A counted along it

[6] = target: IL-17RA (Homo sapiens, UniProt Q96F46); experiment: Surface plasmon resonance; type: binding; details: immobilized IL-17RA on CM5 chip
IL-17RA, sequence (Q96F46 33-320 limits assumed): as the sequence (Q96F46 33-320 limits assumed) above

[7] = target: IL-17RA on IL-17RA–293 cells and HeLa cells (Homo sapiens, UniProt Q96F46); experiment: Binding of biotinylated IL-17A to live cells, flow cytometry; type: cell-based; details: A18 10 μM
IL-17RA on IL-17RA–293 cells and HeLa cells, sequence (Q96F46 33-866): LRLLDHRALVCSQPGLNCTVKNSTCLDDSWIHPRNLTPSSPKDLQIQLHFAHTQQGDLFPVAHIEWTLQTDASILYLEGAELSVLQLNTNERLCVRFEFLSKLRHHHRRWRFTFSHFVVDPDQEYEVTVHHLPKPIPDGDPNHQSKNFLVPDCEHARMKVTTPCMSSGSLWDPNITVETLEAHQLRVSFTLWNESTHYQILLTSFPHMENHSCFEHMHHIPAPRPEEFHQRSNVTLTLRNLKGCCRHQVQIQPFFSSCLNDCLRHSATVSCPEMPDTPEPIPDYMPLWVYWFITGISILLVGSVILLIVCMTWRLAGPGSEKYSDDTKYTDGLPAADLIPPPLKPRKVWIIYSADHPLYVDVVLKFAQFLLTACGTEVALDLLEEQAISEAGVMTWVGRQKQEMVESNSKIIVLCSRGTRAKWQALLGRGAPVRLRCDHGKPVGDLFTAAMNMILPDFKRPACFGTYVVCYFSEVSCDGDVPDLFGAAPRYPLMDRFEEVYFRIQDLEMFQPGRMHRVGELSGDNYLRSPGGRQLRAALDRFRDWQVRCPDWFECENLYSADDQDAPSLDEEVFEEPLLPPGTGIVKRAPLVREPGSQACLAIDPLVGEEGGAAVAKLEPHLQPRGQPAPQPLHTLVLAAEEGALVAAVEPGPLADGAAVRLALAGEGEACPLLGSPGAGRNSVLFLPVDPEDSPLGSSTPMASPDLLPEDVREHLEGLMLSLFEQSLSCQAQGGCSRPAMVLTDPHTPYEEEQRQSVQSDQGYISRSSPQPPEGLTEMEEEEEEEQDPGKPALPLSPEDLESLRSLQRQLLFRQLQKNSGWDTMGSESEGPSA

[8] = tested on: IL-17A; experiment: IL-17A–stimulated cytokine and chemokine production in human cells; type: cell-based; details: 24 hours, ELISA
[9] = tested on: IL-17A; experiment: IL-17A–stimulated cytokine and chemokine production in mouse cells; type: cell-based; details: 24 hours, ELISA
[10] = tested on: IL-17E; experiment: IL-17E–stimulated CXCL1 production / target gene expression in HT29 cells; type: cell-based, human; details: 24 hours
[11] = tested on: IL-17E; type: cell-based, mouse; details: IL-17RB–expressing MEFs, 24 hours
[12] = tested on: IL-17A; experiment: IL-17A–mediated signaling events in HeLa cells; type: cell-based, human
[13] = tested on: IL-17F; experiment: IL-17F–stimulated expression of target genes in cultured cells; type: cell-based
[14] = tested on: IL-17A/IL-17F; experiment: IL-17A/IL-17F–stimulated expression of target genes in cultured cells; type: cell-based
[15] = tested on: WT C57BL/6 mice; experiment: Intradermal injection of IL-17A into ears, epidermal hyperplasia; type: in vivo, mouse; details: IL-17 plus A18 vs PBS-treated mice, RT-PCR
[16] = tested on: WT C57BL/6 mice; experiment: TPA-induced skin hyperplasia; type: in vivo, mouse; details: dorsal skin, RT-PCR (Myc, Cxcl1, Steap4), day 7
[17] = tested on: WT C57BL/6J mice; experiment: Adoptive transfer of MOG-specific TH17 cells to induce EAE; type: in vivo, mouse
[18] = tested on: WT C57BL/6 mice; experiment: Adoptive transfer of OVA-specific TH17 cells, neutrophilic airway inflammation; type: in vivo, mouse; details: TH17 cell transfer, RT-PCR
[19] = tested on: WT C57BL/6 mice; experiment: Adoptive transfer of OVA-specific TH2 cells, eosinophilic airway inflammation; type: in vivo, mouse; details: RT-PCR
[20] = tested on: WT BALB/cJ mice; experiment: Intranasal injection of IL-17A, pulmonary neutrophilia; type: in vivo; details: A18 60 μg per mouse intranasally, 4 hours
[21] = tested on: WT BALB/cJ mice; experiment: Intranasal injection of IL-17E, pulmonary eosinophilia; type: in vivo; details: A18 60 μg per mouse intranasally, 24 hours
[22] = tested on: WT C57BL/6 mice; experiment: HDM-induced severe asthma model; type: in vivo; details: A18 120 μg per mouse i.p. days 13 and 14 plus 60 μg per mouse intranasally 1 hour before challenge
[23] = target: T3, IL-17RA D262A mutant; experiment: Microscale thermophoresis of IL-17A binding to IL-17RA D262A mutant; details: read-out: binding affinity (Kd) of IL-17RA D262A for IL-17A, MST
[24] = target: human IL-17RA D262A mutant protein (soluble, secreted, hexahistidine-tagged) (human); experiment: MST
[25] = target: T4, human IL-17RE-Fc (human, UniProt Q8NFR9 155-454); experiment: ELISA
T4 sequence (looked up): T2 sequence (Q8NFR9 155-454)

[26] = target: T5, human IL-17RB-Fc (human, UniProt Q9NRM6 18-289); experiment: ELISA
T5 sequence (looked up): T1 sequence (Q9NRM6 18-289)

[27] = TH17 cell–mediated EAE, flow cytometry

IL-17A/IL-17RA binding, sequence (Q96F46 33-322): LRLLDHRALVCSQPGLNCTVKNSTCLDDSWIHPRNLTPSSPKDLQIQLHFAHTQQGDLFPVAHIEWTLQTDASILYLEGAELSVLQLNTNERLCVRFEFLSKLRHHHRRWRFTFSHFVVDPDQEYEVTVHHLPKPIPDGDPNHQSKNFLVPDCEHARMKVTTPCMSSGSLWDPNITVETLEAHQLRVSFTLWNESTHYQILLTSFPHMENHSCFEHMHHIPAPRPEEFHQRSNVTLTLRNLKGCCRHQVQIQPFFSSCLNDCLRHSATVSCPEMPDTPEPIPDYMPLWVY

Molecule: Oc1cc(O)c2cc(O)c(-c3cc(O)c(O)c(O)c3)[o+]c2c1 [A10, delphinidin]
IC50 value compared to that of A18, IL-17A/IL-17RA binding ([1]; in words, relative to A18): slightly improved

Molecule: Oc1cc(O)c2cc(O)c(-c3ccc(O)c(O)c3)[o+]c2c1.[Cl-] [A18, 2-(3,4-dihydroxyphenyl)-3,5,7-trihydroxy-1-benzopyrylium chloride]
IC50 [1]: 1.68 µM
disruption of IL-17E/IL-17RB binding [2]: did not efficiently disrupt
disruption of IL-17C/IL-17RE binding [3]: did not efficiently disrupt
Kd [4]: ~3 µM
Kd [5]: 6.35 µM
binding to IL-17RA by SPR [6]: confirmed the binding
binding of IL-17A to ectopically expressed or endogenous IL-17RA on live cells [7]: inhibited
IL-17A–stimulated production of CXCL1 (GROα), IL-6 and IL-8 [8]: substantially inhibited
IL-17A–stimulated production of CXCL1 (KC), IL-6 and CXCL2 (MIP-2) [9]: substantially inhibited
IL-17E–stimulated production of CXCL1 / expression of target genes [10]: limited inhibitory activity; also recorded: little effect
IL-17E–stimulated production of CXCL1 / expression of target genes [11]: limited inhibitory activity; also recorded: little effect
IL-17A–mediated recruitment of Act1 to IL-17RA ([12]; 10 μM A18): decreased
IL-17A–mediated phosphorylation of IκBα, JNK, p38 and ERK1/2 ([12]; pretreated 1 hour with 10 μM A18): decreased
IL-17F–stimulated expression of target genes [13]: inhibited
IL-17A/IL-17F–stimulated expression of target genes [14]: inhibited
abundances of Myc, Cxcl1 and Steap4 mRNAs in the ears [15]: not substantially increased
TPA-induced expression of target genes [16]: substantially reduced
EAE disease severity (peak and remission stages) after cessation of A18 ([17]; A18 withdrawn on day 15, compared with mice never treated with A18): substantially reduced
numbers of CD4+CD25+Foxp3+ Treg cells in lymphoid organs or CNS ([17]; EAE recovery phase (day 20)): did not affect
demyelination in the spinal cords ([17]; TH17 cell–mediated EAE): diminished demyelination
expression of IL-17A target genes ([17]; TH17 cell–mediated EAE): reduced expression
infiltration into the brains of CD4+ T cells, CD8+ T cells or F4/80+ macrophages [17, 27]: no effect
recruitment of Ly6G+ neutrophils into the brains [17, 27]: substantially reduced
inflammatory gene expression in the lungs [18]: substantially reduced
expression of genes encoding TH2 cell–type cytokines in the lungs [19]: no effect
IL-17A–induced pulmonary neutrophilia [20]: substantially inhibited
expression of IL-17A target genes (Cxcl1, Il6, Ccl11) in lung [20]: substantially inhibited
IL-17E–induced pulmonary eosinophilia [21]: did not inhibit
TH2 cell–associated gene expression in lung ([21]; IL-17E): did not inhibit
HDM-induced AHR [22]: substantially reduced
HDM-induced inflammatory gene expression in the lungs [22]: substantially reduced
HDM-induced neutrophilia [22]: substantially reduced

Molecule: OC[C@H]1O[C@@H](Oc2cc3c(O)cc(O)cc3[o+]c2-c2ccc(O)c(O)c2)[C@H](O)[C@@H](O)[C@@H]1O [cyanidin-3-O-glucoside]
IC50 ([1]; read-out: IC50, inhibition of IL-17A/IL-17RA binding, in vitro ligand-receptor binding inhibition assay, purified proteins): 6.88 µM

Molecule: IL-17A: purified recombinant human interleukin-17A, cytokine ligand of IL-17RA
Kd [23]: 1570 nM

B1: purified recombinant human IL-17C (ligand, UniProt Q9P0M4 19-197, looked up)
chain: HHDPSLRGHPHSHGTPHCYSAEELPLGQAPPHLLARGAKWGQALPVALVSSLEAASHRGRHERPSATTQCPVLRPEEVLEADTHQRSISPWRYRVDTDEDRYPQKLAFAECLCRGCIDARTGRETAALNSVRLLQSLLVLRRRPCSRDGSGLPTPGAFAFHTEFIHVPVGCTCVLPRSV
binding result [25]: binds

B2: purified recombinant human IL-17E (IL-25) (ligand, UniProt Q9H293 33-177, looked up)
chain: YSHWPSCCPSKGQDTSEELLRWSTVPVPPLEPARPNRHPESCRASEDGPLNSRAISPWRYELDRDLNRLPQDLYHARCLCPHCVSLQTGSHMDPRGNSELLYHNQTVFYRRPCHGEKGTHKGYCLERRLYRVSLACVCVRPRVMG
binding result [26]: binds

The remaining lines, values ahead:

IC50 [1]: 6.75 µM
Molecule: Oc1cc(O)c2ccc(-c3ccc(O)c(O)c3)[o+]c2c1 [luteolinidin]

IC50 [1]: > 100 µM
Molecule: Oc1ccc(-c2[o+]c3cc(O)cc(O)c3cc2O)cc1 [pelargonidin]

Kd [24]: 1570 nM
Molecule: purified recombinant human IL-17A (from UniProt Q16552 24-155) (ligand)
